Test results from patent US12404289B2 (Gilead Sciences, Inc., priority 2020, dated 2025).
Where two headings read alike, the source gives them in different places.

How the values were obtained:
Format in all cases: cell-based
[1] = CC50 assay (cytopathology in HEp-2 cells); conditions: human
Method: The cytopathology of compounds in HEp-2 cells is determined in the following manner. HEp-2 cells are suspended in DMEM+GlutaMAX (supplemented with 10% FBS and 1% Penicillin/Streptomycin) and seeded into 96 well plates (3×10^3/well). After a 4-hour incubation at 37° C.+5% CO2, three-fold serial dilutions of compounds are added to each well using an HP D300e digital dispenser. The cells are then incubated for 4 days at 37° C. and 5% CO2. The final volume in each well is 200 μL. Untreated wells are included as controls for 100% cell viability, while compounds treated with 5 uM puromycin are included as controls for 0% viability. Following the incubation, 100 μL of culture supernatant is removed from each well and replaced with 100 μL of CellTiter-Glo reagent (Promega, Madison, WI, Cat #G7573). The plates are then rocked for 2 minutes followed by a 10-minute incubation at 25° C. Compound-induced cytopathic effect is then assessed by measuring luminescence signal using and Envision plate reader. Values are normalized to the untreated DMSO and puromycin-treated controls (as 100% and 0% viability, respectively) and data is fit using non-linear regression analysis using XLfit4. The CC50 value for each compound is then determined as the concentration reducing cell viability by 50%.

SARS-CoV-2 = SARS-CoV-2 antiviral assay (A549-hACE2, Nano luciferase); conditions: Severe acute respiratory syndrome coronavirus 2, 48 h, A549-hACE2 cells, SARS-CoV2-Nano, MOI 0.025, 48 h
[2] = tested on: Respiratory syncytial virus (RSV) strain A2; experiment: RSV antiviral assay (HEp-2, 96 well); conditions: human respiratory syncytial virus
[3] = tested on: Recombinant respiratory syncytial virus expressing the firefly luciferase protein (RSV-Fluc); experiment: microbe, parasite or virus in culture; conditions: human respiratory syncytial virus, NHBE, 72 h, read-out: EC50 RSVFluc NHBE 96, NHBE cells, RSV-Fluc, MOI of 0.1, three days, 96 well; Table 4
[4] = HEp-2 cells, 4 days, CellTiter-Glo, Table 1, read-out: RSV CC50
[5] = Table 4, read-out: EC50 SARS CoV2
[6] = HEp-2, 96 h, read-out: EC50-RSV-HEP-2-96, HEp-2 cells, RSV A2, MOI=4, 4 days, 96 well, CellTiter-Glo, Table 1
[7] = Table 1, read-out: SARS-CoV-2 EC50
[8] = HEp-2 cells, 4 days, CellTiter-Glo, Table 2, read-out: RSV CC50
[9] = HEp-2, 96 h, read-out: EC50-RSV-HEP-2-96, HEp-2 cells, RSV A2, MOI=4, 4 days, 96 well, Table 2

Structure (SMILES) | CC50 at 4 days [1, 4] [nM] | EC50 (SARS-CoV-2; [5]) [nM] | EC50 [2, 6] [nM] | also measured
CCOC(=O)[C@H](C)NP(=O)(OC[C@H]1O[C@@](C#N)(c2ccc3c(N)ncnn23)[C@H](OC(C)=O)[C@@H]1OC(C)=O)Oc1ccccc1 (stereo partly drawn) [Example 12, (2R,3R,4R,5R)-2-(4-aminopyrrolo[2,1-f][1,2,4]triazin-7-yl)-2-cyano-5-((((((S)-1-ethoxy-1-oxopropan-2-yl)amino)(phenoxy)phosphoryl)oxy)methyl)tetrahydrofuran-3,4-diyl Diacetate] | 30900 | 139 | 166 | –
CCC(CC)COC(=O)[C@H](C)N[P@](=O)(OC[C@H]1O[C@@](C#N)(c2ccc3c(N)ncnn23)[C@H](O)[C@@H]1O)Oc1ccccc1 | – | – | – | CC50 at 4 days [1]: 6080 nM; EC50 (SARS-CoV-2; Table 2, read-out: SARS-CoV-2 EC50): 110 nM; EC50 ([2]; 96 h, HEp-2 cells, RSV A2, MOI=4, 4 days, 96 well, Table 2, read-out: EC50-RSV-HEP-2-96): 14.9 nM
CCC(CC)COC(=O)[C@H](C)NP(=O)(OC[C@H]1O[C@@](C#N)(c2ccc3c(N)ncnn23)[C@H](OC(=O)C(C)C)[C@@H]1OC(=O)C(C)C)Oc1ccc(C(C)(C)C)cc1 (stereo partly drawn) [Example 14] | 2730 | 186 | 29 | EC50 [3]: 3.72 nM
CCOC(=O)[C@H](C)NP(=O)(OC[C@H]1O[C@@](C#N)(c2ccc3c(N)ncnn23)[C@H](OC(=O)CC)[C@@H]1OC(=O)CC)Oc1ccccc1 (stereo partly drawn) [Example 11, (2R,3R,4R,5R)-2-(4-aminopyrrolo[2,1-f][1,2,4]triazin-7-yl)-2-cyano-5-((((((S)-1-ethoxy-1-oxopropan-2-yl)amino)(phenoxy)phosphoryl)oxy)methyl)tetrahydrofuran-3,4-diyl Dipropionate] | 12800 | 208 | 67.2 | EC50 (SARS-CoV-2; [7]): 76.8 nM
CC(C)OC(=O)[C@H](C)N[P@](=O)(OC[C@H]1O[C@@](C#N)(c2ccc3c(N)ncnn23)[C@H](OC(=O)C(C)C)[C@@H]1OC(=O)C(C)C)Oc1ccccc1 [Example 7, (2R,3R,4R,5R)-2-(4-aminopyrrolo[2,1-f][1,2,4]triazin-7-yl)-2-cyano-5-((((S)—(((S)-1-isopropoxy-1-oxopropan-2-yl)amino)(phenoxy)phosphoryl)oxy)methyl) tetrahydrofuran-3,4-diyl bis(2-methylpropanoate)] | 12600 | 372 | 77.9 | EC50 (SARS-CoV-2; [7]): 241 nM
CCC(CC)COC(=O)[C@H](C)N[P@](=O)(OC[C@H]1O[C@@](C#N)(c2ccc3c(N)ncnn23)[C@H](OC(C)=O)[C@@H]1OC(C)=O)Oc1ccccc1 [Example 2, (2R,3R,4R,5R)-2-(4-aminopyrrolo[2,1-f][1,2,4]triazin-7-yl)-2-cyano-5-((((S)—(((S)-1-(2-ethylbutoxy)-1-oxopropan-2-yl)amino)(phenoxy)phosphoryl)oxy)methyl) tetrahydrofuran-3,4-diyl Diacetate] | 8410 | 102 | 84.4 | EC50 [3]: 4.53 nM
CCOC(=O)[C@H](C)NP(=O)(OC[C@H]1O[C@@](C#N)(c2ccc3c(N)ncnn23)[C@H](O)[C@@H]1O)Oc1ccc(C(C)(C)C)cc1 (stereo partly drawn) [Example 17, Ethyl ((((2R,3S,4R,5R)-5-(4-aminopyrrolo[2,1-f][1,2,4]triazin-7-yl)-5-cyano-3,4-dihydroxytetrahydrofuran-2-yl)methoxy)(4-(tert-butyl)phenoxy)phosphoryl)-L-alaninate] | 20800 | 850 | 164 | –
CCOCCOCCOC(=O)[C@H](C)NP(=O)(OC[C@H]1O[C@@](C#N)(c2ccc3c(N)ncnn23)[C@H](OC(=O)C(C)C)[C@@H]1OC(=O)C(C)C)Oc1ccccc1 (stereo partly drawn) [Example 23, (2R,3R,4R,5R)-2-(4-Aminopyrrolo[2,1-f][1,2,4]triazin-7-yl)-2-cyano-5-((((((S)-1-(2-(2-ethoxyethoxy)ethoxy)-1-oxopropan-2-yl)amino)(phenoxy)phosphoryl)oxy)methyl)tetrahydrofuran-3,4-diyl bis(2-methylpropanoate)] | 5640 | – | 75.9 | –
COC(=O)[C@H](C)NP(=O)(OC[C@H]1O[C@@](C#N)(c2ccc3c(N)ncnn23)[C@H](OC(=O)C(C)C)[C@@H]1OC(=O)C(C)C)Oc1ccc(C(C)(C)C)cc1 (stereo partly drawn) [Example 16, (2R,3R,4R,5R)-2-(4-aminopyrrolo[2,1-f][1,2,4]triazin-7-yl)-5-((((4-(tert-butyl)phenoxy)(((S)-1-methoxy-1-oxopropan-2-yl)amino)phosphoryl)oxy)methyl)-2-cyanotetrahydrofuran-3,4-diyl bis(2-methylpropanoate)] | 2840 | 199 | 9.3 | EC50 (SARS-CoV-2; [7]): 83.8 nM
COC(=O)[C@H](C)NP(=O)(OC[C@H]1O[C@@](C#N)(c2ccc3c(N)ncnn23)[C@H](O)[C@@H]1O)Oc1ccc(C(C)(C)C)cc1 (stereo partly drawn) [Example 15, Methyl ((((2R,3S,4R,5R)-5-(4-aminopyrrolo[2,1-f][1,2,4]triazin-7-yl)-5-cyano-3,4-dihydroxytetrahydrofuran-2-yl)methoxy)(4-(tert-butyl)phenoxy)phosphoryl)-L-alaninate] | 22900 | 777 | 185 | –
COC(C)(C)COC(=O)[C@H](C)NP(=O)(OC[C@H]1O[C@@](C#N)(c2ccc3c(N)ncnn23)[C@H](O)[C@@H]1O)Oc1ccccc1 (stereo partly drawn) [Example 24, 2-Methoxy-2-methylpropyl ((((2R,3S,4R,5R)-5-(4-aminopyrrolo[2,1-f][1,2,4]triazin-7-yl)-5-cyano-3,4-dihydroxytetrahydrofuran-2-yl)methoxy)(phenoxy)phosphoryl)-L-alaninate] | > 50000 | – | 1470 | –
CC(C)OC(=O)[C@H](C)N[P@](=O)(OC[C@H]1O[C@@](C#N)(c2ccc3c(N)ncnn23)[C@H](O)[C@@H]1O)Oc1ccccc1 | – | – | – | CC50 at 4 days [1, 8]: > 9600 nM; EC50 [2, 9]: 364 nM
COC(=O)[C@H](C)N[P@](=O)(OC[C@H]1O[C@@](C#N)(c2ccc3c(N)ncnn23)[C@H](O)[C@@H]1O)Oc1ccccc1 | – | – | – | CC50 at 4 days [1, 8]: 48500 nM; EC50 [2, 9]: 144 nM
C[C@H](NP(=O)(OC[C@H]1O[C@@](C#N)(c2ccc3c(N)ncnn23)[C@H](O)[C@@H]1O)Oc1ccccc1)C(=O)OC1CCC1 (stereo partly drawn) | – | – | – | CC50 at 4 days [1, 8]: 34200 nM; EC50 [2, 9]: 75.1 nM
CCOC(=O)[C@H](C)NP(=O)(OC[C@H]1O[C@@](C#N)(c2ccc3c(N)ncnn23)[C@H](O)[C@@H]1O)Oc1ccccc1 (stereo partly drawn) | – | – | – | CC50 at 4 days [1, 8]: > 70000 nM; EC50 [2, 9]: 296 nM
COC(C)(C)COC(=O)[C@H](C)NP(=O)(OC[C@H]1O[C@@](C#N)(c2ccc3c(N)ncnn23)[C@H](OC(=O)C(C)C)[C@@H]1OC(=O)C(C)C)Oc1ccccc1 (stereo partly drawn) [Example 25, (2R,3R,4R,5R)-2-(4-aminopyrrolo[2,1-f][1,2,4]triazin-7-yl)-2-cyano-5-((((((S)-1-(2-methoxy-2-methylpropoxy)-1-oxopropan-2-yl)amino)(phenoxy)phosphoryl)oxy)methyl)tetrahydrofuran-3,4-diyl bis(2-methylpropanoate)] | 4780 | 350 | 11.1 | EC50 (SARS-CoV-2; [7]): 122 nM
CCC(=O)O[C@H]1[C@@H](OC(=O)CC)[C@](C#N)(c2ccc3c(N)ncnn23)O[C@@H]1CO[P@@](=O)(N[C@@H](C)C(=O)OC)Oc1ccccc1 [Example 5, (2R,3R,4R,5R)-2-(4-aminopyrrolo[2,1-f][1,2,4]triazin-7-yl)-2-cyano-5-((((S)—(((S)-1-methoxy-1-oxopropan-2-yl)amino)(phenoxy)phosphoryl)oxy)methyl) tetrahydrofuran-3,4-diyl Dipropionate] | 9540 | – | 109 | –
CC(=O)O[C@H]1[C@@H](OC(C)=O)[C@](C#N)(c2ccc3c(N)ncnn23)O[C@@H]1CO[P@@](=O)(N[C@@H](C)C(=O)OC(C)C)Oc1ccccc1 [Example 9, (2R,3R,4R,5R)-2-(4-aminopyrrolo[2,1-f][1,2,4]triazin-7-yl)-2-cyano-5-((((S)—(((S)-1-isopropoxy-1-oxopropan-2-yl)amino)(phenoxy)phosphoryl)oxy)methyl) tetrahydrofuran-3,4-diyl Diacetate] | > 50000 | – | 228 | –
CCOCCOCCOC(=O)[C@H](C)NP(=O)(OC[C@H]1O[C@@](C#N)(c2ccc3c(N)ncnn23)[C@H](O)[C@@H]1O)Oc1ccccc1 (stereo partly drawn) [Example 22, 2-(2-Ethoxyethoxy)ethyl ((((2R,3S,4R,5R)-5-(4-aminopyrrolo[2,1-f][1,2,4]triazin-7-yl)-5-cyano-3,4-dihydroxytetrahydrofuran-2-yl)methoxy)(phenoxy)phosphoryl)-L-alaninate] | > 50000 | – | > 4720 | –
